Patent US9295673B2, “Combination of mTOR inhibitors and P13-kinase inhibitors, and uses thereof” (Intellikine LLC, priority 2011, dated 2016)
Like-named read-outs stand apart in the source and are kept apart here.

Tests used:
mTOR = molecular target: T1, mTOR (Homo sapiens, UniProt P42345); assay: mTOR kinase inhibition assay (radiometric or LanthaScreen TR-FRET); type: biochemical; details: Table 1; read-out: mTOR IC50
T1 construct: purchased Invitrogen
Description: The compounds described herein can be tested against recombinant mTOR (Invitrogen) in an assay containing 50 mM HEPES, pH 7.5, 1 mM EGTA, 10 mM MgCl2, 2.5 mM, 0.01% Tween, 10 μM ATP (2.5 μCi of μ-32P-ATP), and 3 mg/mL BSA. Rat recombinant PHAS-1/4EBP1 (Calbiochem; 2 mg/mL) is used as a substrate. Reactions are terminated by spotting onto nitrocellulose, which is washed with 1M NaC1/1% phosphoric acid (approximately 6 times, 5-10 minutes each). Sheets are dried and the transferred radioactivity quantitated by phosphorimaging.
For instance, one can use Invitrogen's LanthaScreen™ Kinase assay to test the inhibitors of mTOR disclosed herein. This assay is a time resolved FRET platform that measures the phosphorylation of GFP labeled 4EBP1 by mTOR kinase. The kinase reaction is performed in a white 384 well microtitre plate. The total reaction volume is 20 ul per well and the reaction buffer composition is 50 mM HEPES pH7.5, 0.01% Polysorbate 20, 1 mM EGTA, 10 mM MnCl2, and 2 mM DTT. In the first step, each well receives 2 ul of test compound in 20% dimethylsulphoxide resulting in a 2% DMSO final concentration. […] The plate is sealed and incubated for 1 hour at room temperature. […] The plate is sealed, incubated for 1 hour at room temperature, and then read on a plate reader set up for LanthaScreen™ TR-FRET. Data is analyzed and IC50s are generated using GraphPad Prism 5.

PC3 = PC3 proliferation (Alamar Blue); type: cell-based; details: Homo sapiens, PC-3; for IC50: PC3 cells
Description: For instance, an in vitro cellular proliferation assay can be performed to measure the metabolic activity of live cells. The assay is performed in a 96 well microtiter plate using Alamar Blue reduction. […] A compound disclosed herein is diluted in Tumor Cell Media and added in a 10 ul volume. […] A volume of 10 uL of Alamar Blue reagent is added to each well and plates are incubated for 3 hours at 37 C and 5% CO2.

PI3K α = PI3K α (Homo sapiens, UniProt P42336); assay: PI 3-Kinase (human) HTRF assay, PI3K α
Description: (§1) An exemplary system is PI 3-Kinase (human) HTRF™ Assay from Upstate. […] Briefly, the assay is a time resolved FRET assay that indirectly measures PIP3 product formed by the activity of a PI3-K. The kinase reaction is performed in a microtitre plate (e.g., a 384 well microtitre plate). The total reaction volume is approximately 20 ul per well. In the first step, each well receives 2 ul of test compound in 20% dimethylsulphoxide resulting in a 2% DMSO final concentration. […] The plate is sealed and incubated for 15 minutes at room temperature. […] The plate is sealed and incubated for 1 hour at room temperature. The reaction is stopped by adding 5 ul of Stop Solution per well and then 5 ul of Detection Mix is added per well. The plate is sealed, incubated for 1 hour at room temperature, and then read on an appropriate plate reader. Data is analyzed and IC50s are generated using GraphPad Prism 5.

PI3K β = PI3K β (Homo sapiens, UniProt P42338); assay: PI 3-Kinase (human) HTRF assay, PI3K β
Description: as §1

PI3K γ = PI3K γ (Homo sapiens, UniProt P48736); assay: PI 3-Kinase (human) HTRF assay, PI3K γ
PI3K δ = PI3K δ (Homo sapiens, UniProt O00329); assay: PI 3-Kinase (human) HTRF assay, PI3K δ
breast cancer model = assay: Preclinical breast cancer model (tumor weight / volume); type: in vivo
B cell function = B cell function in vivo (TNP-Ficoll immunization, antibody production); design: species or system mouse; details: mice immunized with TNP-Ficoll; 70 mg/kg GDC0941; 30, 60 or 120 mg/kg Compound A for 7 days (FIG. 8)
Description: Antibody production was measured as a percentage of control group that were treated with vehicle.

MZB cells = MZB cells in mouse spleen; type: in vivo; details: 70 mg/kg Pan-PI3K inhibitor compared to 60 mg/kg Compound A (FIG. 9 right)
[1] = system: MDA-MB-361 (PI3Kα/HER2 carcinoma) tumors; assay: In vivo efficacy in MDA-MB-361 xenograft mouse model of breast cancer; design: species or system nude mice; details: 70 mg/kg Pan-PI3K inhibitor, 60 mg/kg compound A, FIG. 9 left panel
Description: Blood glucose was monitored periodically following administration of treatment.
Treatment of tumors (MDA-MB-361) with compounds was discontinued on Day 30. Tumors were measured every 2-5 days.

[2] = system: anti-TNP antibody production; assay: TNP-Ficoll T-cell independent B-cell activation assay; type: in vivo; details: mice, 7 days; 70 mg/kg GDC0941; 30, 60, 120 mg/kg Compound A; ELISA; FIG. 8
Description: To test the effects of the compounds of the present invention in suppressing T cell independent antibody production, the TNP-Ficoll B-cell activation assay is used as described herein. Compounds of the present invention are dissolved in an appropriate vehicle (e.g. 5% 1-methyl-2-pyrrolidinone, 85% polyethylene glycol 400, 10% Solutor). Compounds are administered orally approximately 1 hr before TNP-Ficoll treatment to 4-10 week old mice. To study the effects of the compounds on B-cell activation, one set of mice are grouped according to the following table:
Four animals in group 1, and eight animals in groups 2 to 7 are euthanized in CO2 2 hours after the last compound administration on day 7. […]
Serum samples are analyzed for anti-TNP antibody titers by ELISA as described herein. […] HRP substrate (200 μl ABTS solution+30% H2O2+10 ml citrate buffer) is added to each well at 100 μl/well, incubated 2-20 minutes in the dark and the amount of anti-TNP IgG3 is determined spectrophotometrically at 405 nm. Similarly, anti-TNP IgM and total anti-TNP Ab are determined using anti-mouse IgM-HRP and anti-mouse Ig-HRP respectively.
Antibody production was measured using ELISA and plotted as as a percentage of control group that were treated with vehicle.

marginal zone B cells = assay: Marginal zone B cells in mouse spleen (FACS); details: 70 mg/kg Pan-PI3K inhibitor, 60 mg/kg Compound A; spleens harvested 2 hrs after last dose; FIG. 9
Description: The effect of the compounds on the localization/viability of marginal zone B cells in the spleen is also evaluated at the conclusion of treatment.
Spleens were harvested 2 hrs after the last dose, processed and stained with appropriate antibodies (marginal zone B cell: B220+; CD23−; CD21hi) and analyzed for staining on GUAVA EasyCyte FACS machine using Guava Cytosoft 5.2 software.

[3] = system: Akt, S6, 4EBP phosphorylation; assay: Western blot of PI3K pathway phosphorylation (Akt, S6, 4EBP); type: cell-based
NRDG1 phosphorylation = assay: Western blot of NRDG1 phosphorylation; type: cell-based; details: western blot (FIG. 5B)
[4] = system: pAKT(S473), pAKT(T308) in PC3 cells; assay: Western blot of Akt phosphorylation (pAKT) in PC3 cells; type: cell-based; details: PC3 model, FIG. 7
Description: Cells comprising one or more mutations in PI3Kα, including but not limited to breast cancer cells (e.g., MDA-MB-361, T47D, SKOV-3), and cells comprising one or more mutations in PTEN including but not limited to prostate cancer cells (e.g., PC3), are typically grown in cell growth media such as DMEM supplemented with fetal bovine serum and/or antibiotics, and grown to confluency. Cells are then treated with various concentrations of test compound for about 2 hours and subsequently lysed in cell lysis buffer. Lysates are subjected to SDS-PAGE followed by Western blot analysis to detect downstream signaling markers, including but not limited to pAKT(S473), pAKT(T308), pS6, and p4E-BP1.

[5] = system: 786-O human kidney carcinoma tumors; assay: In vivo efficacy in 786-O xenograft model; design: species or system nude mice; details: oral, FIG. 6
[6] = system: mTORC1 and mTORC2 in 786-O cells; assay: Western blot of pNDRG1 in 786-O cells (mTOR pathways); type: cell-based, human; details: FIG. 5
Description: Cells were subsequently lysed and lysates were subjected to SDS-PAGE followed by Western blot analysis to detect the downstream pathway marker, pNDRG1.

[7] = read-out: PI3K γ IC50, in vitro

Sequence of PI3K γ (P48736 whole entry): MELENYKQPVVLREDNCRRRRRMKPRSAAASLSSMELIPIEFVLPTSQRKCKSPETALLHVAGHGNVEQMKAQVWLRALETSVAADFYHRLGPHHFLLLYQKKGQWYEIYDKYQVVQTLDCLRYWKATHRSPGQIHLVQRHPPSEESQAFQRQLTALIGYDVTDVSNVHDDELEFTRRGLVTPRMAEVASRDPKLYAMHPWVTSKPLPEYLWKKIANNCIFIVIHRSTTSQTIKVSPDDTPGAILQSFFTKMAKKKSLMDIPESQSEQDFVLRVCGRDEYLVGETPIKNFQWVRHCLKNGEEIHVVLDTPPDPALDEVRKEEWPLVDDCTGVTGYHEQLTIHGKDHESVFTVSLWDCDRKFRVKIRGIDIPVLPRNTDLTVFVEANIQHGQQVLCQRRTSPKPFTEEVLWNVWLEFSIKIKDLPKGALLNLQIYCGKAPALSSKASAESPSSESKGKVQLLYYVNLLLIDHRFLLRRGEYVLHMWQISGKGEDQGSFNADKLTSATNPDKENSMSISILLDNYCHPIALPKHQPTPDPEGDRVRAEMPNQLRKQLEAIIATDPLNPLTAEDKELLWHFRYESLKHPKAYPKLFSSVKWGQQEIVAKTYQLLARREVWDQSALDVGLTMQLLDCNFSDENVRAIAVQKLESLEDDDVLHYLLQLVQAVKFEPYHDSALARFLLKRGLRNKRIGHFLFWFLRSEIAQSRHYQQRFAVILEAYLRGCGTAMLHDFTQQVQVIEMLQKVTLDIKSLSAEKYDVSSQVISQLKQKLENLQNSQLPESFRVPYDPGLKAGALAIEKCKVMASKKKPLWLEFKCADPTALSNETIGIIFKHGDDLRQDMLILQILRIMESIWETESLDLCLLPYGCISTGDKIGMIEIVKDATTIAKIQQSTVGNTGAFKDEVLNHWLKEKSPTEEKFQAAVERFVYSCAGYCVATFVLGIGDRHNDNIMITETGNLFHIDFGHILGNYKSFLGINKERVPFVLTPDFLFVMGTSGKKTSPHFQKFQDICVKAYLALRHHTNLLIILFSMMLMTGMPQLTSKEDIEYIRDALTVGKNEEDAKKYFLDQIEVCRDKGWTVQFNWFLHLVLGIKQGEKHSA
Sequence of PI3K δ (O00329 whole entry): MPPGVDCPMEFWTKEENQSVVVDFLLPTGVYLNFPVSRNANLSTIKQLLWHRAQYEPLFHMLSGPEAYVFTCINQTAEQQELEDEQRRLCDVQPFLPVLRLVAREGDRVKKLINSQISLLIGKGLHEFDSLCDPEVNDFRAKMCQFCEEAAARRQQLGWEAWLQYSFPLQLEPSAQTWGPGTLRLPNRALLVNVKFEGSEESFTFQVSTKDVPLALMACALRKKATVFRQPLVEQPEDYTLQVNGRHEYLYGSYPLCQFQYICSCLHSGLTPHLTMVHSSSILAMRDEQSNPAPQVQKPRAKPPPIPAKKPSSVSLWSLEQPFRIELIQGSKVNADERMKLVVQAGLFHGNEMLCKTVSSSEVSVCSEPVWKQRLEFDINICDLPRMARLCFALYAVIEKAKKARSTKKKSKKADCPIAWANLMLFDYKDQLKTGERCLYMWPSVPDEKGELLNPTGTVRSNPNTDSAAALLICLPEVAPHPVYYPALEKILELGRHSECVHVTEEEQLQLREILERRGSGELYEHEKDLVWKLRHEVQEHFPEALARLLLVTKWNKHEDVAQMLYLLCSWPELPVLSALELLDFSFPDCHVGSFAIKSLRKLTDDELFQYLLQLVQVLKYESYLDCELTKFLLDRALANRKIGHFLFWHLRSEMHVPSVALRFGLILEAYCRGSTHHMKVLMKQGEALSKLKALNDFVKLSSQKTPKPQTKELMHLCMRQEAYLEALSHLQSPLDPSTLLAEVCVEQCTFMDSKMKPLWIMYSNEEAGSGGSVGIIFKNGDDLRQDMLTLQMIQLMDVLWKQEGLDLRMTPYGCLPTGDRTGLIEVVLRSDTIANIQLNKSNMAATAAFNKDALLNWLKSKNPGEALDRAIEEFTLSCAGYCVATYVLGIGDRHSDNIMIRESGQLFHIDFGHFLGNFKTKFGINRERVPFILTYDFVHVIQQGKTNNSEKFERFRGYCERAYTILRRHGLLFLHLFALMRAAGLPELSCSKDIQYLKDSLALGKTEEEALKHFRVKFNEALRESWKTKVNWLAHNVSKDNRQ
Sequence of PI3K δ (P27986 whole entry partner): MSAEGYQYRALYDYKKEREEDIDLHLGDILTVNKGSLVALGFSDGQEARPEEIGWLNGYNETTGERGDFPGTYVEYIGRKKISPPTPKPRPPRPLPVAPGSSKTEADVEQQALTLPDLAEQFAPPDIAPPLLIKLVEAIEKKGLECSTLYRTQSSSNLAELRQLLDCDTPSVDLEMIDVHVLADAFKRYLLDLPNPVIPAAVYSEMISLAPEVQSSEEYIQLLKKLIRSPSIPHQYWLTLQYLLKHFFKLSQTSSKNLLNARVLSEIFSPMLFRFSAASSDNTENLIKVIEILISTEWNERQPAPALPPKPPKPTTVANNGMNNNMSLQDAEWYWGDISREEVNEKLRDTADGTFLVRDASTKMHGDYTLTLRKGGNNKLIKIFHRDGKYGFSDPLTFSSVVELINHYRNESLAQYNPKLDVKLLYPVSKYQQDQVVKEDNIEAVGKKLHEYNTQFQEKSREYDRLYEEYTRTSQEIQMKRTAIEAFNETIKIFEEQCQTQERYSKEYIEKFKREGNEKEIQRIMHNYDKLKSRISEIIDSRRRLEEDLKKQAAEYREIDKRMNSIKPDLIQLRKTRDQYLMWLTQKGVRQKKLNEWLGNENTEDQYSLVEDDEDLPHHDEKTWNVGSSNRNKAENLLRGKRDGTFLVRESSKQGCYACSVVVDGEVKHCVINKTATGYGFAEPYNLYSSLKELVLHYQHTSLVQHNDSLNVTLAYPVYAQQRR
Sequence of PI3K β (P42338 whole entry): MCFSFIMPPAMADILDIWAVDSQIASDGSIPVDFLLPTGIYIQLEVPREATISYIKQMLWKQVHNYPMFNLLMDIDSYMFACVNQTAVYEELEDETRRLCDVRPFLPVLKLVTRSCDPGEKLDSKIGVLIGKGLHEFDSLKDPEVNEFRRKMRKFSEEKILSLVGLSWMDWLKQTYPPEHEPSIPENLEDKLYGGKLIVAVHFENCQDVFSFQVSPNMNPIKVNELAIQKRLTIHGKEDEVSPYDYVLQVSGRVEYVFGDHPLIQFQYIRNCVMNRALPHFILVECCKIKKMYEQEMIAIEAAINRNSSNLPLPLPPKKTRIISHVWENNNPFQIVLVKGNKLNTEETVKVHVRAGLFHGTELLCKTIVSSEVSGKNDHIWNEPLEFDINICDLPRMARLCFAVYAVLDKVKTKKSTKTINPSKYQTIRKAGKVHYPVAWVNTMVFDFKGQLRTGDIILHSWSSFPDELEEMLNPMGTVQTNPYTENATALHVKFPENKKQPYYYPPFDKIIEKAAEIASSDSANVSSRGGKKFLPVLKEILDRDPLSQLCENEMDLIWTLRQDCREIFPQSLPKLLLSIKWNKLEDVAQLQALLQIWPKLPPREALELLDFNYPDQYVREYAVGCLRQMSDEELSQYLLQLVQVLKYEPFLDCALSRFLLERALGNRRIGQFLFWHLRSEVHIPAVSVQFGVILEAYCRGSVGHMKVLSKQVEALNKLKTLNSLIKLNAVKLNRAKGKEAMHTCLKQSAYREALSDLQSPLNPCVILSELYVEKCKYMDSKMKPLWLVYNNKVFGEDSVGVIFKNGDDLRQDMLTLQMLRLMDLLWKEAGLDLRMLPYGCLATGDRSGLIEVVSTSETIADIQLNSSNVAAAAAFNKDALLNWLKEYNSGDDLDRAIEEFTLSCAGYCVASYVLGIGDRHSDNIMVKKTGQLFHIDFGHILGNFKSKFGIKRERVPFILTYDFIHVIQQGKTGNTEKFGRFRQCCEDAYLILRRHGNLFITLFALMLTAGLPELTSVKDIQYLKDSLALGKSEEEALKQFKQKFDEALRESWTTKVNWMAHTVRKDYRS
Sequence of PI3K β (P27986 whole entry partner): as the sequence (P27986 whole entry partner) above
Sequence of PI3K α (P42336 whole entry): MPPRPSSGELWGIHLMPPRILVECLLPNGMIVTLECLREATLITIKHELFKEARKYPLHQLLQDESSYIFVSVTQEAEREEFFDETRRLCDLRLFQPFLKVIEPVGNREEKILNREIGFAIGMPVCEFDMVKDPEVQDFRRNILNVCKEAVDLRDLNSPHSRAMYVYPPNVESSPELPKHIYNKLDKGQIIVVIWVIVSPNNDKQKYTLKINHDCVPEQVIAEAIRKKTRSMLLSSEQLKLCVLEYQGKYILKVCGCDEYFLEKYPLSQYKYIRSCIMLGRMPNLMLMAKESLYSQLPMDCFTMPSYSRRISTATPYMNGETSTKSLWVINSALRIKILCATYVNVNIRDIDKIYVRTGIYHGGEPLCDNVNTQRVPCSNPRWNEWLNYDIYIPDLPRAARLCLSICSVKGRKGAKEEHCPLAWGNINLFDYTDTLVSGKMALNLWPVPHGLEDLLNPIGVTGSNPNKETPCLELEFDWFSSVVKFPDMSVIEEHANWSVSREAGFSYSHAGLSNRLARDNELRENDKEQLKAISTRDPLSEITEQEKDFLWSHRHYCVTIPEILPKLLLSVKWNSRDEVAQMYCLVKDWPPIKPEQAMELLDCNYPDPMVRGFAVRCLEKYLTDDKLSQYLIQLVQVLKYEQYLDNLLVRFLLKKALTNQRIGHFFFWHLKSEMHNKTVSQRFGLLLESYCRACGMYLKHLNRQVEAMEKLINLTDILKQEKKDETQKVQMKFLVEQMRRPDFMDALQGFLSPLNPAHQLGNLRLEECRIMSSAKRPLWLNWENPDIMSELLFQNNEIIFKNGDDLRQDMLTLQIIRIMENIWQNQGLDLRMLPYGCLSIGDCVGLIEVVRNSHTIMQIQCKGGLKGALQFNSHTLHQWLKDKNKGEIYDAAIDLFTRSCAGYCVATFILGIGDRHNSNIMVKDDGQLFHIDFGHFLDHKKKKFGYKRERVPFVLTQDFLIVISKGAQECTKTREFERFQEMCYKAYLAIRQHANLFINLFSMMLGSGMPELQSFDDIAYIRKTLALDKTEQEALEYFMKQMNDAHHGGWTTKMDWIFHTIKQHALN
Sequence of PI3K α (P27986 whole entry partner): as the sequence (P27986 whole entry partner) above

C=Cc1oc(NC(C)=O)nc1/C=C/c1nn(C)c2ncnc(N)c12 [Compound 2]
IC50 (mTOR): < 100 nM
EC50 (PC3; Table 1): < 1000 nM
IC50 (PI3K α): < 10 µM
IC50 (PI3K β): > 10 µM
IC50 (PI3K γ): < 1 µM
IC50 (PI3K δ): < 1 µM

Nc1nc2cc(-c3ccc4ncc(C(=O)N5CC(N6CC[C@@H](O)C6)C5)n4c3)ccc2o1 [Compound 470]
IC50 (PC3): < 10000 nM
IC50 (PI3K δ; read-out: PI3K δ IC50, in vitro): < 10 µM

C[C@H]1COCCN1C(=O)c1cnc2ccc(-c3ccc4oc(N)nc4c3)cn12 [Compound 483]
IC50 (PC3): < 10000 nM

COc1ncc(-c2ccc3ncn(C4CCN(C(C)C)CC4)c(=O)c3c2)cc1NS(=O)(=O)c1ccccc1 [Compound 522]
IC50 (PC3): < 1000 nM

Nc1nc2cc(-c3ccc4ncc(C(=O)N5CC[C@H](n6cccn6)C5)n4c3)ccc2o1 [Compound 478]
IC50 (PC3): < 1000 nM

COC1CN(C(=O)c2cnc3ccc(-c4ccc5oc(N)nc5c4)cn23)C1 [Compound 467]
IC50 (PC3): < 1000 nM

CN(C(=O)c1cnc2ccc(-c3ccc4oc(N)nc4c3)cn12)C1CCOCC1 [Compound 472]
IC50 (PC3): < 10000 nM

CS(=O)(=O)N1CCN(Cc2cc3nc(-c4cccc5[nH]ncc45)nc(N4CCOCC4)c3s2)CC1 [Pan-PI3K inhibitor, GDC0941, reference compound]
tumor weight of a breast cancer model (breast cancer model; 70 mg/kg Pan-PI3K inhibitor, 60 mg/kg compound A (FIG. 9 left)): reduction in tumor weight
B cell function in vivo (antibody production) (B cell function): blocks
presence of MZB cells in mouse spleen (MZB cells): reduced presence
tumor weight [1]: reduction in tumor weight
B cell function in vivo (antibody production after TNP-Ficoll) [2]: blocks B cell function in vivo
presence (localization/viability) of marginal zone B cells in spleen (marginal zone B cells): reduced presence of MZB cells

C[C@H]1CN(C2CN(C(=O)c3cnc4ccc(-c5ccc6oc(N)nc6c5)cn34)C2)CCN1C [Compound 512]
IC50 (PC3): < 1000 nM
IC50 (PI3K γ; [7]): < 10 µM

Nc1nc2cc(-c3ccc4ncc(C(=O)N5C6CCC5COC6)n4c3)ccc2o1 [Compound 480]
IC50 (PC3): < 1000 nM

C[C@@H]1CN(C2CN(C(=O)c3cnc4ccc(-c5ccc6oc(N)nc6c5)cn34)C2)CCN1C [Compound 508]
IC50 (PC3): < 1000 nM

O=C(c1cnc2ccc(-c3cnc(Cl)c(NS(=O)(=O)c4ccccc4F)c3)cn12)N1CCOCC1 [Compound 452]
IC50 (PC3): < 10000 nM

Nc1nc2cc(-c3ccc4ncc(C(=O)N5CC(F)(F)C5)n4c3)ccc2o1 [Compound 473]
IC50 (PC3): < 1000 nM

CC(C)n1nc(-c2ccc3oc(N)nc3c2)c2c(N)ncnc21 [Compound B]
tumor weight in a preclinical breast cancer model (breast cancer model; combined treatment with Compound A and Compound B (FIG. 2)): synergistic effect
inhibition of Akt, S6, and 4EBP phosphorylation ([3]; PTEN mutant cells, western blot (FIG. 6B)): selective inhibition
downregulating Akt and S6 phosphorylation ([3]; combined treatment with Compound A and Compound B, western blot (FIG. 3)): synergistic effect
inhibition of Akt phosphorylation at serine 473 over threonine 308 ([3]; western blot (FIG. 7)): differential inhibition
mTORC1-dependent NRDG1 phosphorylation (NRDG1 phosphorylation): sensitivity
inhibition of Akt phosphorylation, serine 473 versus threonine 308 [4]: differential inhibition of Akt phosphorylation at serine 473 over threonine 308
inhibition of kinase activity (downstream markers) and tumor growth [5]: effective at inhibiting kinase activity
effects on mTORC1 and mTORC2 (pNDRG1) [6]: differential effects on mTORC1 and mTORC2

C[C@@H]1CN(C2CN(C(=O)c3cnc4ccc(-c5ccc6oc(N)nc6c5)cn34)C2)CCN1 [Compound 511]
IC50 (PC3): < 10000 nM
IC50 (PI3K γ; [7]): < 10 µM
